Assay results: PubChem BioAssay AID624395 (The Scripps Research Institute Molecular Screening Center, 2012)
The source made the active and inactive calls. How the calls were made is not given here.

Tested on: cell-based VP16 transactivation luciferase luminescence
Assay: VP16 transactivation luciferase reporter inhibitors, dose response, counter-screen for NR2E3 agonist project, cell-based, luminescence (AID 624395)

## N#C/C(=N\Nc1ccc(Cl)c(Cl)c1)C(=O)C1CC1
  IC50: 1.04 µM

## C=CCn1c(C)cc(C(=O)CN2C(=O)c3ccccc3S2(=O)=O)c1C
  IC50: 2.31 µM

## COc1cnc(-c2ccccn2)nc1N(C)c1ccccc1
  IC50: 5.76 µM

## CCc1ccccc1Nc1nn2c(=O)c3ccc(C(=O)NCc4ccccn4)cc3nc2s1
  IC50: > 13.3 µM (inactive)

## Cc1ccnc(NC(=O)CSc2cc(=O)n(C)c3ccccc23)c1
  IC50: 11 µM (inactive)

## COc1cc2c(oc(=O)c3cc(C)cc(OC)c32)c2c(C3OC(C)C(O)C(C)(O)C3O)ccc(O)c12 (stereo unspecified)
  IC50: 7.6 µM

## O=C(OC12CC3CC(CC(C3)C1)C2)c1ccc(NCc2cc(O)ccc2O)cc1
  IC50: 11.6 µM (inactive)

## O=C(C(=Cc1ccccc1)CN1CCCCC1)c1ccccc1
  IC50: 4.54 µM

## c1ccc(CNc2ncnc3sccc23)cc1
  IC50: 4.71 µM

## O=C(Nc1ccccc1Cl)/C(Cl)=C(\Cl)S(=O)c1ccccc1 (stereo unspecified)
  IC50: 4.1 µM

## c1ccc(-c2cc(CSc3nc4ccccc4[nH]3)on2)cc1
  IC50: 2.69 µM

## CCCCCCCCn1c(=O)c(C(=O)OC)c(N)c2ccccc21
  IC50: 3.64 µM

## Cc1ccnc(NC(=O)C2CCN(S(=O)(=O)c3c(C)c(C)cc(C)c3C)CC2)c1
  IC50: 13.2 µM (inactive)

## CCOP(=O)(CCP(=O)(OCC)OCC)OCC.C[CH2][Sn]([Cl])([Cl])[CH2]C
  IC50: 10.9 µM (inactive)

## O=S(=O)(/C=C/C=C/S(=O)(=O)c1ccccc1)c1ccccc1
  IC50: 11.7 µM (inactive)

## COCCn1c(C)cc(C(=O)COc2ccc(C)nc2[N+](=O)[O-])c1C
  IC50: 1.46 µM

## Cc1ccnc(NC(=S)N2CCN(c3cccc(C(F)(F)F)c3)CC2)c1
  IC50: 12.3 µM (inactive)

## Cc1ccc(-c2nc(NC(=O)CSc3nnnn3-c3ccccc3)ns2)cc1
  IC50: 12.1 µM (inactive)

## CC1CCC/C=C/C2CC(O)CC2C(O)/C=C/C(=O)O1 (stereo unspecified)
  IC50: 1.28 µM

## COc1ccc(S(=O)(=O)N2CCCCC2)cc1NC(=S)Nc1cccc(Cl)c1C
  IC50: > 39.8 µM (inactive)

## Cc1ccc(CN2CC(C(=O)Nc3ncc(C)s3)CC2=O)cc1 (stereo unspecified)
  IC50: > 39.8 µM (inactive)

## O=[N+]([O-])c1ccc(NS(=O)(=O)c2ccccc2)c(Cl)c1
  IC50: 4.38 µM

## COc1ccc(C(=O)c2c(C(F)(F)F)oc3c2C(=O)c2ccccc2C3=O)cc1OC
  IC50: 1.68 µM

## N=C1SCC(=O)N1c1ncc(Cc2cccc(Cl)c2)s1
  IC50: 4.78 µM

## O=C(COC(=O)c1cc([N+](=O)[O-])ccc1N1CCOCC1)Nc1ccc(Cl)cn1
  IC50: 31.8 µM (inactive)

## O=c1cc(N2CCN(c3ccccc3)CC2)[nH]c(=O)n1C1CCCCC1
  IC50: > 39.8 µM (inactive)

## COc1ccc2c(CC(=O)Nc3ncc(C)s3)coc2c1
  IC50: > 39.8 µM (inactive)

## Nc1nc(N)nc(-c2cc(O)ccc2O)n1
  IC50: 1.09 µM

## Cc1cc(C(=O)COc2cccnc2[N+](=O)[O-])c(C)n1-c1ccccc1
  IC50: 0.3 µM

## CN(C)c1ccc(/C=C/c2ccc3ccccc3[n+]2C)cc1
  IC50: 13 µM (inactive)

## CCn1c(=O)cc(SCC(=O)Nc2ccc(C)cn2)c2ccccc21
  IC50: 4.63 µM

## CCCCCc1c(-c2ccc(OC)c(OC)c2)ncn1CCc1ccccc1OC
  IC50: 7.74 µM

## CC1CC(C)C(=NNC(N)=O)C(C(O)CC2CCC(=O)NC2=O)C1 (stereo unspecified)
  IC50: 4.07 µM

## C[C@H]1CCC/C=C/[C@@H]2C[C@H](O)C[C@H]2[C@H](O)[C@H](S(=O)c2ccc(O)cc2)CC(=O)O1 (stereo partly specified)
  IC50: 3.52 µM

## CCC(=O)NC(c1cccs1)c1cc([N+](=O)[O-])c2cccnc2c1O (stereo unspecified)
  IC50: 3.89 µM

## CC(C)(C)NCC(=Cc1ccccc1)C(=O)c1ccccc1
  IC50: 7.33 µM

## COc1ccc([C@@H]2C[C@H]3[C@@H](CN2S(=O)(=O)c2ccccc2)C(=O)C[C@@H](c2cccc(Cl)c2)N3S(=O)(=O)c2ccc(C)cc2)cc1
  IC50: 4.51 µM

## COc1cccc(N2CCN(c3nc(-c4ccccc4C)cc(=O)[nH]3)CC2)c1
  IC50: 4.57 µM

## CN1C2CCC1/C(=C/c1ccccn1)C(=O)/C2=C\c1ccccn1
  IC50: 4.5 µM

## O=C(/C=C/c1ccc([N+](=O)[O-])o1)NNC(=O)c1ccc(F)cc1
  IC50: 24.2 µM (inactive)

## CCCOc1ccc(CSc2nc3ccccc3[nH]2)cc1
  IC50: 13.3 µM (inactive)
